According to ChEMBL document CHEMBL3044980, “Free radical scavenging and hepatoprotective effects of salidroside analogs on CCl4-induced cytotoxicity in LO2 cells” (Med Chem Res, 2013):
The source made the active and inactive calls. The calls are words filed in the database; no cut-off is given here.

Tests used:
[1] = Antioxidant activity assessed as decrease in initial DPPH concentration after 30 min by MicroELISA reader analysis; assay type: functional
L02 [2] = experiment: Hepatoprotective activity in Homo sapiens (human) LO2 cells assessed as reversal of CCl4-induced decrease in superoxide dismutase activity at 1 mM treated prior to CCl4 addition measured after 24 hr by xanthine/xanthine oxidase assay (CCl4 Rvb = 47 +/-4.4%); assay type: functional; set-up: scale not given: the % may be the effect or the level left
L02 [3] = experiment: Hepatoprotective activity in Homo sapiens (human) LO2 cells assessed as reversal of CCl4-induced increase in malondialdehyde level at 50 mM treated prior to CCl4 addition measured after 24 hr (CCl4 Rvb = 170 +/-4.3%); assay type: functional
L02 [4] = experiment: Hepatoprotective activity in Homo sapiens (human) LO2 cells assessed as reversal of CCl4-induced decrease in GSH-Px activity at […] treated prior to CCl4 addition measured after 24 hr (CCl4 Rvb = 49 +/-3.8%); assay type: functional; set-up: scale not given: the % may be the effect or the level left
L02 [5] = experiment: Hepatoprotective activity in Homo sapiens (human) LO2 cells assessed as reversal of CCl4-induced decrease in GSH-Px activity at 1 mM treated prior to CCl4 addition measured after 24 hr (CCl4 Rvb = 49 +/-3.8%); assay type: functional; set-up: scale not given: the % may be the effect or the level left
L02 [6] = experiment: Hepatoprotective activity in Homo sapiens (human) LO2 cells assessed as protection against CCl4-induced cytotoxicity at […] treated prior to CCl4 addition measured after 24 hr by MTT assay; assay type: functional, cell-based
L02 [7] = experiment: Hepatoprotective activity in Homo sapiens (human) LO2 cells assessed as protection against CCl4-induced cytotoxicity at 50 to […] treated prior to CCl4 addition measured after 24 hr by MTT assay; assay type: functional, cell-based
L02 [8] = experiment: Hepatoprotective activity in Homo sapiens (human) LO2 cells assessed as reversal of CCl4-induced increase in malondialdehyde level at […] treated prior to CCl4 addition measured after 24 hr (CCl4 Rvb = 170 +/-4.3%); assay type: functional
L02 [9] = experiment: Hepatoprotective activity in Homo sapiens (human) LO2 cells assessed as reversal of CCl4-induced decrease in superoxide dismutase activity at […] treated prior to CCl4 addition measured after 24 hr by xanthine/xanthine oxidase assay (CCl4 Rvb = 47 +/-4.4%); assay type: functional; set-up: scale not given: the % may be the effect or the level left
L02 [10] = experiment: Hepatoprotective activity in Homo sapiens (human) LO2 cells assessed as reversal of CCl4-induced increase in malondialdehyde level at 1 mM treated prior to CCl4 addition measured after 24 hr (CCl4 Rvb = 170 +/-4.3%); assay type: functional
L02 [11] = experiment: Hepatoprotective activity in Homo sapiens (human) LO2 cells assessed as reversal of CCl4-induced decrease in GSH-Px activity at 10 mM treated prior to CCl4 addition measured after 24 hr (CCl4 Rvb = 49 +/-3.8%); assay type: functional; set-up: scale not given: the % may be the effect or the level left
L02 [12] = experiment: Hepatoprotective activity in Homo sapiens (human) LO2 cells assessed as reversal of CCl4-induced decrease in superoxide dismutase activity at 10 mM treated prior to CCl4 addition measured after 24 hr by xanthine/xanthine oxidase assay (CCl4 Rvb = 47 +/-4.4%); assay type: functional; set-up: scale not given: the % may be the effect or the level left
L02 [13] = experiment: Hepatoprotective activity in Homo sapiens (human) LO2 cells assessed as reversal of CCl4-induced decrease in superoxide dismutase activity at 50 mM treated prior to CCl4 addition measured after 24 hr by xanthine/xanthine oxidase assay (CCl4 Rvb = 47 +/-4.4%); assay type: functional; set-up: scale not given: the % may be the effect or the level left
L02 [14] = experiment: Hepatoprotective activity in Homo sapiens (human) LO2 cells assessed as protection against CCl4-induced cytotoxicity at 10 to […] treated prior to CCl4 addition measured after 24 hr by MTT assay; assay type: functional, cell-based
L02 [15] = experiment: Hepatoprotective activity in Homo sapiens (human) LO2 cells assessed as reversal of CCl4-induced increase in malondialdehyde level at 10 mM treated prior to CCl4 addition measured after 24 hr (CCl4 Rvb = 170 +/-4.3%); assay type: functional
L02 [16] = experiment: Hepatoprotective activity in Homo sapiens (human) LO2 cells assessed as reversal of CCl4-induced decrease in GSH-Px activity at 50 mM treated prior to CCl4 addition measured after 24 hr (CCl4 Rvb = 49 +/-3.8%); assay type: functional; set-up: scale not given: the % may be the effect or the level left

Compound OC[C@H]1O[C@@H](OCCc2ccc(O)c(Br)c2)[C@H](O)[C@@H](O)[C@@H]1O has an IC50 [1] greater than 100 µM.
Work on COc1cc(CCO[C@@H]2O[C@H](CO)[C@H](O)[C@H](O)[C@H]2O)cc(OC)c1O yielded an IC50 [1] of 70.1 µM.
With OC[C@H]1O[C@@H](OCCc2cc(O)c(O)c(O)c2)[C@H](O)[C@@H](O)[C@@H]1O the Activity (L02 [2]) was 50%, the IC50 [1] was 38.1 µM and the Activity (L02 [3]) was 128%. For the same compound, the Activity (L02 [4]) was 80%, the Activity (L02 [5]) was 54% and the Activity (L02 [6]) was “Active”. For the same compound, the Activity (L02 [7]) was “Active”, the Activity (L02 [8]) was 117% and the Activity (L02 [9]) was 83%. It also gave an Activity (L02 [10]) of 167%, an Activity (L02 [11]) of 57% and an Activity (L02 [12]) of 55%. The Activity (L02 [13]) was 70%, the Activity (L02 [14]) was “Active” and the Activity (L02 [15]) was 151%. For the same compound, the Activity (L02 [16]) was 71%.
With CCOc1cc(CCO[C@@H]2O[C@H](CO)[C@@H](O)[C@H](O)[C@H]2O)ccc1O the IC50 [1] was 66.8 µM.
With COc1cc(CCO[C@@H]2O[C@H](CO)[C@@H](O)[C@H](O)[C@H]2O)cc(OC)c1O the IC50 [1] was 61.6 µM.
OC[C@H]1O[C@@H](OCCc2ccc(O)cc2)[C@H](O)[C@@H](O)[C@@H]1O [SALIDROSIDE] gave an Activity (L02 [2]) of 49%, an Activity (L02 [3]) of 162% and an Activity (L02 [4]) of 61%. For the same compound, the Activity (L02 [5]) was 51%, the Activity (L02 [6]) was “Active” and the Activity (L02 [7]) was “Active”. It also gave an Activity (L02 [8]) of 157%, an Activity (L02 [9]) of 61% and an Activity (L02 [10]) of 168%. It also gave an Activity (L02 [11]) of 53%, an Activity (L02 [12]) of 52% and an Activity (L02 [13]) of 56%. For the same compound, the Activity (L02 [14]) was “Active”, the Activity (L02 [15]) was 165% and the Activity (L02 [16]) was 56%.
Work on OC[C@H]1O[C@@H](OCCc2ccc(O)c(Br)c2)[C@H](O)[C@@H](O)[C@H]1O yielded an IC50 [1] greater than 100 µM.
OC[C@H]1O[C@@H](OCCc2cc(Br)c(O)c(Br)c2)[C@H](O)[C@@H](O)[C@H]1O showed an IC50 [1] greater than 100 µM.
In the case of CCOc1cc(CCO[C@@H]2O[C@H](CO)[C@H](O)[C@H](O)[C@H]2O)ccc1O, the IC50 [1] is reported as 87.5 µM.
O=C1O[C@H]([C@@H](O)CO)C(O)=C1O [ASCORBIC ACID] gave an IC50 [1] of 54.6 µM.
Work on OC[C@H]1O[C@@H](OCCc2cc(O)c(O)c(O)c2)[C@H](O)[C@@H](O)[C@H]1O yielded an Activity (L02 [2]) of 54%, an IC50 [1] of 35.9 µM and an Activity (L02 [3]) of 119%. For the same compound, the Activity (L02 [4]) was 86%, the Activity (L02 [5]) was 55% and the Activity (L02 [6]) was “Active”. The Activity (L02 [7]) was “Active”, the Activity (L02 [8]) was 110% and the Activity (L02 [9]) was 89%. The Activity (L02 [10]) was 164%, the Activity (L02 [11]) was 64% and the Activity (L02 [12]) was 65%. The Activity (L02 [13]) was 76%, the Activity (L02 [14]) was “Active” and the Activity (L02 [15]) was 141%. It also gave an Activity (L02 [16]) of 78%.
Compound COc1cc(CCO[C@@H]2O[C@H](CO)[C@@H](O)[C@H](O)[C@H]2O)ccc1O has an IC50 [1] of 59.8 µM.
Work on COc1cc(CCO[C@@H]2O[C@H](CO)[C@H](O)[C@H](O)[C@H]2O)ccc1O yielded an IC50 [1] of 40.8 µM.
Work on OC[C@H]1O[C@@H](OCCc2cc(Br)c(O)c(Br)c2)[C@H](O)[C@@H](O)[C@@H]1O yielded an IC50 [1] greater than 100 µM.
